Read-outs that look alike come from different tables or passages of the source.
How the values were obtained:
[1] = tested on: forearm skin; settings: 5% solution with L-arginine; for increase in skin thickness: forearm
Method: The combined thickness of two whole-skin layers including thickness of the two hinge leaves was measured with micrometer calipers. The thickness of the two hinge leaves was subtracted to determine the actual thickness of two whole-skin layers. Triplicate measurements on treated sites were done and an average number was used for calculation of the skin thickness.
The solution thus prepared contained 5% non-amphoteric glutathione derivative. For comparative study, glutathione 5 g and L-arginine 1 g were dissolved in 94 ml solution prepared from water 70 parts and propylene glycol 30 parts. The solution thus prepared contained 5% amphoteric glutathione.
A subject, applied topically twice daily the above 5% amphoteric glutathione solution to their left forearm and 5% non-amphoteric glutathione derivative to their right forearm for four weeks.
A solution containing a non-amphoteric glutathione derivative was prepared. […] The solution thus prepared contained 5% non-amphoteric glutathione derivative.
A subject, applied topically twice daily the above 5% non-amphoteric glutathione derivative to their right forearm for eight weeks.
A subject, applied topically twice daily the above 5% non-amphoteric glutathione derivative to their left forearm for eight weeks.

[2] = tested on: X-linked ichthyosis with severe dry skin; settings: 3% cream under test chambers on forearm, subject
Method: A solution containing a non-amphoteric glutathione derivative was prepared. N-Acetyl-glutathione diethyl ester 3 g was dissolved in warm propylene glycol 17 ml, and the solution was mixed with 80 g oil-in-water cream base or hydrophilic ointment. The cream contained 3% non-amphoteric N-acetyl-glutathione diethyl ester.
A subject who had X-linked ichthyosis with severe dry skin participated in this study. Test spots were I cm square sites on extensor surface of forearm, a grid pattern formed by Hayes Test Chambers on Hayes adhesive strips. Each test chamber contained a square piece of filter paper which was fully saturated with the non-amphoteric glutathione derivative cream. Test chambers were impressed on the skin to leave outlines which were marked with SANFORD® SHARPIE® permanent marker. Sites were re-marked at each successive application of the test cream. Chambers were removed twice weekly, and replaced with a new adhesive strip of chambers with filter paper saturated with the test cream. The test was carried out for two weeks.

[3] = tested on: chronic nummular eczema; settings: 10% cream of Preparation Example 2, topically twice daily for two days, subject, right lower leg
Method: A solution containing a non-amphoteric glutathione derivative was prepared. […] The solution was mixed uniformly with 70 g cream base.

[4] = topically twice daily for four weeks, subject

## N[C@@H](CCC(=O)N[C@@H](CS)C(=O)NCC(=O)O)C(=O)O [glutathione]
[1]; [4]
  increase in skin thickness: no change
  appearance of treated forearm skin: still loose, relatively thin and wrinkled when lifted

## CCOC(=O)CNC(=O)[C@H](CS)NC(=O)CC[C@H](NC(C)=O)C(=O)OCC [N-acetyl-glutathione diethyl ester, N-Acetyl-glutathione diethyl ester]
[2]; after one week
  clinical evaluation, improvement of rough and scaly skin: 90%
[2]; after two weeks
  appearance of severe dry skin: smooth and normal-looking

## COC(=O)CNC(=O)[C@H](CS)NC(=O)CC[C@H](N)C(=O)OC.Cl [glutathione dimethyl ester, Glutathione dimethyl ester hydrochloride]
[1]; topically twice daily for eight weeks, one subject per example
  appearance of treated forearm skin: more firm, smooth, plump and minimally wrinkled when lifted
[1]; [4]
  increase in skin thickness: 10%
  appearance of treated forearm skin: more firm, smooth, plump and minimally wrinkled when lifted
[3]
  areas of the eczematous lesions reduced: 75%
